Laboratory results from the supplement of paper PMC11424490.

Experiments:
SW837 [1] = assay: combination cScore with sotorasib (Bliss gap around IC50) (%PoC); higher = stronger additive effect
In short: (§1)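 Scores represent the average Bliss-independence gap, expected minus measured viability, in a field surrounding both monotherapy IC50s, with the top concentrations used when no IC50 was reached. Cells (NCI-H2122, NCI-H358, SW837) were seeded at 500 or 800 per well in 384-well plates, dosed in matrices at 24 h and grown for 72 h, with SW837 grown for 144 h. Viability was measured by CellTiter-Glo, normalised to vehicle wells and fitted with four-parameter curves.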

NCI-H2122 [2] = assay: as above
In short: as §1

NCI-H358 [3] = assay: as above
In short: as §1

SW837 [4] = assay: fitted bottom plateau of viability curve, % of DMSO control; higher = less maximal inhibition; extreme values may be limits of the assay
In short: (§2)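 Relative IC50 values, averaged over replicates, and lower plateaus were obtained by four-parameter nonlinear fitting of percent-of-control viability data, normalised to DMSO controls. Viability was read as CellTiter-Glo luminescence after single-compound dose series had been incubated for 72 h (NCI-H2122, NCI-H358) or 144 h (SW837).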

NCI-H2122 [5] = assay: as above
In short: as §2

NCI-H358 [6] = assay: as above
In short: as §2

SW837 [7] = assay: relative IC50 of cell viability (CellTiter-Glo); higher = less potent
Method: (§3)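 CellTiter-Glo proliferation assay in KRAS G12C mutant NCI-H2122 (72 h), SW837 (144 h) and NCI-H358 cells in 384-well plates. Monotherapy dose response was fitted with a four-parameter curve after normalisation to DMSO controls (% of control, PoC). IC50 is the relative IC50, averaged over replicates. Bottom is the fitted lower plateau in %PoC; Max.Conc. is the top dose tested.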

NCI-H2122 [8] = assay: as above
Method: as §3

| relative IC50 of cell viability (SW837 [7]) | relative IC50 of cell viability (NCI-H2122 [8]) | SMILES | combination cScore with sotorasib (SW837 [1]) | combination cScore with sotorasib (NCI-H2122 [2]) | combination cScore with sotorasib (NCI-H358 [3]) | fitted bottom plateau of viability curve (SW837 [4]) | fitted bottom plateau of viability curve (NCI-H2122 [5]) | fitted bottom plateau of viability curve (NCI-H358 [6]) |
| --- | --- | --- | --- | --- | --- | --- | --- | --- |
| – | – | C=CC(=O)N1CCC[C@@H](n2nc(-c3ccc(Oc4ccccc4)cc3)c3c(N)ncnc32)C1 [Ibrutinib] + C=CC(=O)N1CCN(c2nc(=O)n(-c3c(C)ccnc3C(C)C)c3nc(-c4c(O)cccc4F)c(F)cc23)[C@@H](C)C1 [sotorasib] | 13.3 | 27.9 | 14.4 | – | – | – |
| – | – | Cc1nc(Nc2ncc(C(=O)Nc3c(C)cccc3Cl)s2)cc(N2CCN(CCO)CC2)n1 [Dasatinib] + C=CC(=O)N1CCN(c2nc(=O)n(-c3c(C)ccnc3C(C)C)c3nc(-c4c(O)cccc4F)c(F)cc23)[C@@H](C)C1 [sotorasib] | 17.9 | 30.8 | 9.3 | – | – | – |
| – | – | CCc1nc(N)nc(N)c1-c1ccc(Cl)cc1 [Pyrimethamine] + C=CC(=O)N1CCN(c2nc(=O)n(-c3c(C)ccnc3C(C)C)c3nc(-c4c(O)cccc4F)c(F)cc23)[C@@H](C)C1 [sotorasib] | -4.42 | 5.47 | -6.53 | – | – | – |
| – | – | C[C@H](Nc1ncnc2nc[nH]c12)c1cc2cccc(Cl)c2c(=O)n1-c1ccccc1 [Duvelisib] + C=CC(=O)N1CCN(c2nc(=O)n(-c3c(C)ccnc3C(C)C)c3nc(-c4c(O)cccc4F)c(F)cc23)[C@@H](C)C1 [sotorasib] | 18.6 | 14.2 | 4.86 | – | – | – |
| – | – | O=P1(N(CCCl)CCCl)NCCCO1 (configuration not stated) [Cyclophosphamide] (top concentration tested 10000 nM) | – | – | – | 87.3% | 88.9% | 99.7% |
| – | – | COc1cc2/c(=N/c3ccc(Br)cc3F)nc[nH]c2cc1OCC1CCN(C)CC1 [Vandetanib] + C=CC(=O)N1CCN(c2nc(=O)n(-c3c(C)ccnc3C(C)C)c3nc(-c4c(O)cccc4F)c(F)cc23)[C@@H](C)C1 [sotorasib] | 22.6 | 28.4 | 7.76 | – | – | – |
| – | – | O=C(c1c(F)ccc(NS(=O)(=O)N2CC[C@@H](F)C2)c1F)c1c[nH]c2ncc(-c3cnc(C4CC4)nc3)cc12 [PLX8394] (top concentration tested 5000 nM) | – | – | – | 96.3% | 78.7% | 57.8% |
| – | – | O=c1cc(-c2cccc3c2Sc2ccccc2S3)oc(N2CCOCC2)c1 (top concentration tested 9999.9 nM) | – | – | – | 101% | 70.7% | 76.8% |
| – | – | CCCc1cc(C)[nH]c(=O)c1CNC(=O)c1cc(-c2ccnc(N3CCN(C)CC3)c2)cc2c1cnn2C(C)C [GSK343] (top concentration tested 4999.9 nM) | – | – | – | 94.5% | 83.2% | 92.7% |
| – | – | CC(C)N(CCCNC(=O)Nc1ccc(C(C)(C)C)cc1)C[C@H]1O[C@@H](n2ccc3c(N)ncnc32)[C@H](O)[C@@H]1O (top concentration tested 50000 nM) | – | – | – | 93.4% | 67.3% | 81.5% |
| – | – | Cc1c(Cn2c(C)nc3c(C(=O)O)cc(N4CCOCC4)cc32)cccc1C(F)(F)F (top concentration tested 9999.9 nM) | – | – | – | 98.7% | 70.8% | 93.8% |
| – | – | CC1(N)CCN(c2cnc(-c3cccc(Cl)c3Cl)c(N)n2)CC1 [SHP099] (top concentration tested 1000.1 nM) | – | – | – | 97% | 84.1% | 88.2% |
| – | – | O=C(c1cc(Cc2n[nH]c(=O)c3ccccc23)ccc1F)N1CCN(C(=O)C2CC2)CC1 [Olaparib] (top concentration tested 50000 nM) | – | – | – | 88.2% | 63.9% | 56.6% |
| – | – | Oc1nc(-c2ccc(C(F)(F)F)cc2)nc2c1CSCC2 [XAV939] (top concentration tested 50000 nM) | – | – | – | 89.3% | 81.5% | 88.7% |
| – | – | O=C(C1CC1)N1CC[C@@H](Cn2c(-c3ccc(-c4ccc5occc5c4)cc3)nc3cnccc32)C1 (top concentration tested 9999.9 nM) | – | – | – | 91.7% | 75.1% | 96.6% |
| – | – | C[C@H](NC(=O)c1c(N)nn2cccnc12)c1cc2cccc(C#Cc3cnn(C)c3)c2c(=O)n1-c1ccccc1 [IPI-549] (top concentration tested 1000 nM) | – | – | – | 91.6% | 86.2% | 91% |
| – | – | COc1cc2nc(C)nc(N[C@H](C)c3cc(N)cc(C(F)(F)F)c3)c2cc1O[C@H]1CCOC1 [BI-3406 (SOSi)] (top concentration tested 1000.1 nM) | – | – | – | 102% | 69.4% | 82% |
| – | – | CS(=O)(=O)CCNCc1ccc(-c2ccc3ncnc(Nc4ccc(OCc5cccc(F)c5)c(Cl)c4)c3c2)o1 [Lapatinib] (top concentration tested 1000 nM) | – | – | – | 92.9% | 77.5% | 58.4% |
| – | – | CC[C@H](Nc1ncnc2[nH]cnc12)c1nc2cccc(F)c2c(=O)n1-c1ccccc1 [Cal-101] (top concentration tested 10000 nM) | – | – | – | 85.3% | 75.5% | 84.2% |
| – | – | CC/C(=C(\c1ccccc1)c1ccc(OCCN(C)C)cc1)c1ccccc1 [Tamoxifen] (top concentration tested 10000 nM) | – | – | – | 88.6% | 66% | 67.9% |
| 1340 nM | 995 nM | COc1cc([C@@H]2c3cc4c(cc3[C@@H](O[C@@H]3O[C@@H]5CO[C@@H](C)O[C@H]5[C@H](O)[C@H]3O)[C@H]3COC(=O)[C@H]23)OCO4)cc(OC)c1O [Etoposide] (top concentration tested 10000 nM) | – | – | – | 14.5% | 51.5% | – |
| 33.4 nM | 21.7 nM | CC(=O)Nc1cccc(-n2c(=O)n(C3CC3)c(=O)c3c(Nc4ccc(I)cc4F)n(C)c(=O)c(C)c32)c1 [Trametinib] (top concentration tested 1000 nM) | – | – | – | 11.6% | 3.01% | – |
| 39 nM | 22.7 nM | CN(NC(=O)CC(=O)NN(C)C(=S)c1ccccc1)C(=S)c1ccccc1 [Elesclomol] (top concentration tested 10000 nM) | – | – | – | 2.84% | 1.27% | – |
| – | – | C[C@H](Nc1ncnc2nc[nH]c12)c1cc2cccc(Cl)c2c(=O)n1-c1ccccc1 [Duvelisib] (top concentration tested 9999.9 nM) | – | – | – | 94.1% | 56.5% | 61% |
| – | – | O=C(/C=C/N1C[C@H]2C[C@@H]1CN2c1ccccn1)c1ccccc1O [PFI-3] (top concentration tested 50000 nM) | – | – | – | 98.3% | 94% | 93.4% |
| 142 nM | 207 nM | COc1cccc2c1C(=O)c1c(O)c3c(c(O)c1C2=O)C[C@@](O)(C(=O)CO)C[C@@H]3O[C@H]1C[C@H](N)[C@H](O)[C@H](C)O1 [Doxorubicin] (top concentration tested 1000 nM) | – | – | – | 1.81% | 34.5% | – |
